Here are results for four compounds from patent US20170151264A1, “COMBINATION” (Almirall, S.A., priority 2014, published 2017).

For series [1], the system named is Concanavalin A induced plasma interleukin-2 (IL-2) release. Briefly: Concanavalin A induced plasma IL-2 release in rats. As to conditions: for reduction in IL2 production versus vehicle-treated con A-induced rats: LAS191954 0.1 mg/kg and/or dexamethasone 0.03 mg/kg, 1 h before con A, IL2 at 90 min; for plasma levels alone versus in combination: LAS191954 0.1 mg/kg, dexamethasone 0.03 mg/kg, rat. Format: in vivo, Wistar rats.

In the next series the test system is neutrophils in BALF. Briefly: Cigarette smoke model. Format: in vivo, Mouse. As to conditions: LAS191954 1 mg/kg and/or dexamethasone 0.3 mg/kg.
The subject of series [2] is neutrophils, eosinophils and lymphocytes in bronchoalveolar fluid (BALF). Briefly: House dust mite induced asthma model. The format is in vivo, Mouse.
A further series deals with PI3K p110γ (Homo sapiens, UniProt P48736). As to conditions: recombinant human isoform, pre-incubation 30 min.
Series [3] concerns secondary IgG antibody responses to KLH. Briefly: Secondary TDAR to KLH in mice. The format is in vivo. As to the method:
This assay included two immunizations with KLH separated 15 days apart (50 μg KLH/animal, intraperitoneally) and specific IgG anti-KLH levels were measured on day +11 after the second immunization. Administration of test compound (0.3 and 3 mg/kg) started on the day of second immunization (day +1) and then once daily for the next 9 days.

Series [4] concerns primary antibody responses to KLH. Briefly: Primary T cell dependent antibody response (TDAR) to KLH in mice. The format is in vivo. As to the method:
This assay allows a global assessment of the effect of a drug candidate on antigen presentation, helper T lymphocyte function and B lymphocyte dependent antibody production.
In both cases, the administration of the test compound started on the day of sensitization (day +1, KLH 2 mg/mouse, intravenously). […] A possible reason for this discrepancy is that the lymphocyte count of the concurrent vehicle group of the latter study was abnormally lower than usual, which could mask a potential effect of the test compound on this parameter.

The target in series [5] is T1, PI3Kδ (Homo sapiens, UniProt O00329). Briefly: BCR crosslinking-induced CD69 expression in CD19+ B cells, isolated PBMC. Format: cell-based. Particulars: Anti-IgD, CD69 surface expression.
Target sequence in this assay (O00329 whole entry): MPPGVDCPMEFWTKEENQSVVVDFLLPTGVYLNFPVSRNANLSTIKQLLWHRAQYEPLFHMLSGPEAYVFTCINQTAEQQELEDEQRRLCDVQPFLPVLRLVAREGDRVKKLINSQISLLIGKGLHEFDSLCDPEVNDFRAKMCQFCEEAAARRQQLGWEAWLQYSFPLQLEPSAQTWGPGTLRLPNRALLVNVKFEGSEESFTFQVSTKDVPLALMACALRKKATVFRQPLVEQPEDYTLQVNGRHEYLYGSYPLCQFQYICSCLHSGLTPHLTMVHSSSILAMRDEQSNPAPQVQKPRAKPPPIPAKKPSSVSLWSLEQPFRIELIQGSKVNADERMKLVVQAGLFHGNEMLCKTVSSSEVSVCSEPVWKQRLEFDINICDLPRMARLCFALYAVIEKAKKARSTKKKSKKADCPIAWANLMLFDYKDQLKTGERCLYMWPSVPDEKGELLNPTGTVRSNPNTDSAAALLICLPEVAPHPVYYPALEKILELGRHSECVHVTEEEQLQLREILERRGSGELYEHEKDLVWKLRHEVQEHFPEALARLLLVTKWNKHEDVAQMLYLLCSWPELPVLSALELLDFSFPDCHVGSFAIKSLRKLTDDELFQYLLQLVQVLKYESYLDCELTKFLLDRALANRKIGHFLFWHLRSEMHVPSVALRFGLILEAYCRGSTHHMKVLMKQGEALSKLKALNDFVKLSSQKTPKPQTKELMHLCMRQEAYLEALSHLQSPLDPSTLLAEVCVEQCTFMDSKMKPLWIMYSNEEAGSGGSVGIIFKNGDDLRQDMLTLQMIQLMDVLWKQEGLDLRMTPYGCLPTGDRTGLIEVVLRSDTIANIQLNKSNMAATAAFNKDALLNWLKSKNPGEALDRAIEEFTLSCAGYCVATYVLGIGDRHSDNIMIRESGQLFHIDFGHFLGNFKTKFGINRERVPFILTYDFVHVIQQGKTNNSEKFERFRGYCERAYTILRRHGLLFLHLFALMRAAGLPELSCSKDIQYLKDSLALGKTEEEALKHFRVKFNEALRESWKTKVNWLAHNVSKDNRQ
Target sequence in this assay (P27986 whole entry partner): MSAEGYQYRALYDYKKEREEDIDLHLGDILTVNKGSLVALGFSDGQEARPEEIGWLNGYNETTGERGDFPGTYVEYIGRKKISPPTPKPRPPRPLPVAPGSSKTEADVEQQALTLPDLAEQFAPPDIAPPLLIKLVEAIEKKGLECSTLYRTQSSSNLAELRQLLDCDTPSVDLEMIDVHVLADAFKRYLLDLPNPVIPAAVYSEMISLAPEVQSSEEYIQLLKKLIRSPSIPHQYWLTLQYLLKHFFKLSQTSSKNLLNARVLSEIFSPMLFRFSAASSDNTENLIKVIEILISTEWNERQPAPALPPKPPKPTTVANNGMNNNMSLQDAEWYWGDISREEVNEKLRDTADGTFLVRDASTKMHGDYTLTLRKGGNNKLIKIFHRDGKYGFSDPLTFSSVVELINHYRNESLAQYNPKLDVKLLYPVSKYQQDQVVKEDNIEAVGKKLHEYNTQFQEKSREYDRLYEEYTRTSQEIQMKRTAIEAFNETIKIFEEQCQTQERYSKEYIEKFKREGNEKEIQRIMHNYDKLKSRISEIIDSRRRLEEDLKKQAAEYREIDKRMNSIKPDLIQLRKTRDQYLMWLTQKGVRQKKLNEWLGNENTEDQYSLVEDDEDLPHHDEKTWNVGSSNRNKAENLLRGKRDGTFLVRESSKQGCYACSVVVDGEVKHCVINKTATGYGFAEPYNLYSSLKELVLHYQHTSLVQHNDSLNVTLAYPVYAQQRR
Series [6] addresses T1, PI3Kδ. Put plainly: BCR crosslinking-induced B cell CD69 expression, human whole blood. Format: cell-based. As to conditions: CD19+ cells (human whole blood), B cell CD69 surface expression.
Target sequence in this assay (O00329 whole entry): as the sequence (O00329 whole entry) above
Target sequence in this assay (P27986 whole entry partner): as the sequence (P27986 whole entry partner) above
Series [7] concerns the target T1, PI3Kδ. Put plainly: Immune complex-induced ROS release in human neutrophils. Format: cell-based. Particulars: immune complexes.
Target sequence in this assay (O00329 whole entry): as the sequence (O00329 whole entry) above
Target sequence in this assay (P27986 2-724 partner limits assumed): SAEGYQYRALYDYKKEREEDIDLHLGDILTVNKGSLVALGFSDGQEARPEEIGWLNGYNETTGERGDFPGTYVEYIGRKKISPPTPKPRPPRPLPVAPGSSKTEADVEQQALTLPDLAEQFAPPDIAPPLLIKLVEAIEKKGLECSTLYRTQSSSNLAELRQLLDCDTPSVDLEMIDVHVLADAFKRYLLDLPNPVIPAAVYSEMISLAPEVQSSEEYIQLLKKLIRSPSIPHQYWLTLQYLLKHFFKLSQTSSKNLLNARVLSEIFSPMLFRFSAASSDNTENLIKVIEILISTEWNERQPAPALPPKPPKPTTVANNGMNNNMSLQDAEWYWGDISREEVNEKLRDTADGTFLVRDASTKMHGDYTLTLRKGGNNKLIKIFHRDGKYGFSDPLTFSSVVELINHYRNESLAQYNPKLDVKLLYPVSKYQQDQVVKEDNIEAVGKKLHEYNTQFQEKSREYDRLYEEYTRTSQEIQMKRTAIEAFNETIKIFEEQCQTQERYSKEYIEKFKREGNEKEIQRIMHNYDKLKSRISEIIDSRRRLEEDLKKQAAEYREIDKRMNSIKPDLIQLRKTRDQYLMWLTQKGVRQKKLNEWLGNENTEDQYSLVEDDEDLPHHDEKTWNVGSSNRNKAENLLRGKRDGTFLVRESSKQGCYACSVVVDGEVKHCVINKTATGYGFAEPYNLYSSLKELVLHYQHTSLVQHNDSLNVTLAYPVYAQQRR
In a further series the target is PI3Kβ (Homo sapiens, UniProt P42338). Particulars: HUVEC, S1P stimulus, phosphorylated AKT.
The target of series [8] is T1, PI3Kδ. Briefly: M-CSF-induced AKT phosphorylation in THP-1 cells. Format: cell-based. Particulars: THP-1, M-CSF stimulus, phosphorylated AKT.
Target sequence in this assay (O00329 whole entry): as the sequence (O00329 whole entry) above
Target sequence in this assay (P27986 whole entry partner): as the sequence (P27986 whole entry partner) above
Series [9] relates to 273 protein and lipid kinases. Briefly: General selectivity kinase panel (Millipore, Invitrogen and ProQinase). The format is biochemical. As to conditions: 10 μM.
In series [10] the test system is 81 GPCR receptors, 8 ion channels and 5 transporters. Briefly: General selectivity panel (Cerep). The format is binding. As to conditions: 10 μM.
In series [11] the test system is autoantibody-mediated cutaneous lesions. Put plainly: Immunization-induced mouse model of epidermolysis bullosa acquista (EBA). Format: in vivo, B6.SJL-H2s mice. Particulars: 6 week treatment; for body weight gain: LAS191954 3 mg/kg/day or methylprednisolone 20 mg/kg/day orally. As for the experimental part: Induction of experimental EBA was performed as described in Iwata H, Bieber K, Tiburzy B et al., J Immunol. 2013; 191:2978-2988. Briefly, 6-10 week B6.SJL-H2s mice were immunized with an emulsion of a recombinant protein encompassing the vWFA2 binding domain of mouse type VII collagen (COL7) in adjuvant (Titermax). After immunization, mice were weekly evaluated for the presence and extend of clinical disease, measured as percentage of body surface affected by skin lesions (erythema, blisters, erosions and crusts).
Treatments were carried out over a 6-week period, and mice were evaluated for the extend of clinical disease (primary endpoint) weekly. Clinical manifestations were scored 0 to 5, corresponding to 0%, <1%, ≧1% to <5%, ≧5% to <10%, ≧10% to <20% of body surface area affected, respectively. Area under Curve (AUC) was calculated from the score at inclusion, 1, 2, 3, 4, 5 and 6 weeks after allocation to treatment. For better comparability between experiments, the affected body surface area at weeks 1-6 was related to that at inclusion (set at 1).
Body weight was monitored weekly during treatment.

The subject of a further series is CHO cells. As to conditions: highest tested concentration of 100 μM, 24 h.
In series [12] the test system is Anti-Dsg3 and anti-dsDNA autoantibody production. Briefly: MRL/lpr spontaneous autoimmune disease model, autoantibody production. The format is in vivo, MRL/Ipr mouse. Particulars: for Inhibition (%) of Anti Dsg3 total IgG production (Normalized AUCw 12-19) versus Vehicle / Inhibition (%) of Anti dsDNA total IgG production (Normalized AUCw 12-19) versus Vehicle: LAS191954 3 mg/kg or prednisolone 10 mg/kg orally once a day for 6 weeks. As for the experimental part: The primary endpoint of this study was assessment of autoantibody production, including pemphigus-specific anti-Dsg3 antibodies.
The prednisolone dose was selected based on previous reports and corresponds to a high CS dose in humans.
As autoantibodies develop progressively and may follow a different course in each animal, anti-dsDNA antibody levels were measured on week 12 and used to uniformly distribute animals to dosing groups. At week 13, daily treatments were initiated and continued for 6 weeks. Antibodies to dsDNA and Dsg3 were measured at weeks 12, 15, 17 and 19. Skin lesions were inspected visually throughout the study. Effects on other parameters such as proteinuria, as well as general hematological, serological, and histological signs were evaluated at study completion.

Setting [13] is: dexamethasone 0.1-10 mg/kg and LAS191954 0.1-10 mg/kg ranges tested, dose of value not stated.
Setting [14] is: Week 12 (beginning of treatment).

Sequence of PI3K p110γ (P48736 whole entry, canonical isoform): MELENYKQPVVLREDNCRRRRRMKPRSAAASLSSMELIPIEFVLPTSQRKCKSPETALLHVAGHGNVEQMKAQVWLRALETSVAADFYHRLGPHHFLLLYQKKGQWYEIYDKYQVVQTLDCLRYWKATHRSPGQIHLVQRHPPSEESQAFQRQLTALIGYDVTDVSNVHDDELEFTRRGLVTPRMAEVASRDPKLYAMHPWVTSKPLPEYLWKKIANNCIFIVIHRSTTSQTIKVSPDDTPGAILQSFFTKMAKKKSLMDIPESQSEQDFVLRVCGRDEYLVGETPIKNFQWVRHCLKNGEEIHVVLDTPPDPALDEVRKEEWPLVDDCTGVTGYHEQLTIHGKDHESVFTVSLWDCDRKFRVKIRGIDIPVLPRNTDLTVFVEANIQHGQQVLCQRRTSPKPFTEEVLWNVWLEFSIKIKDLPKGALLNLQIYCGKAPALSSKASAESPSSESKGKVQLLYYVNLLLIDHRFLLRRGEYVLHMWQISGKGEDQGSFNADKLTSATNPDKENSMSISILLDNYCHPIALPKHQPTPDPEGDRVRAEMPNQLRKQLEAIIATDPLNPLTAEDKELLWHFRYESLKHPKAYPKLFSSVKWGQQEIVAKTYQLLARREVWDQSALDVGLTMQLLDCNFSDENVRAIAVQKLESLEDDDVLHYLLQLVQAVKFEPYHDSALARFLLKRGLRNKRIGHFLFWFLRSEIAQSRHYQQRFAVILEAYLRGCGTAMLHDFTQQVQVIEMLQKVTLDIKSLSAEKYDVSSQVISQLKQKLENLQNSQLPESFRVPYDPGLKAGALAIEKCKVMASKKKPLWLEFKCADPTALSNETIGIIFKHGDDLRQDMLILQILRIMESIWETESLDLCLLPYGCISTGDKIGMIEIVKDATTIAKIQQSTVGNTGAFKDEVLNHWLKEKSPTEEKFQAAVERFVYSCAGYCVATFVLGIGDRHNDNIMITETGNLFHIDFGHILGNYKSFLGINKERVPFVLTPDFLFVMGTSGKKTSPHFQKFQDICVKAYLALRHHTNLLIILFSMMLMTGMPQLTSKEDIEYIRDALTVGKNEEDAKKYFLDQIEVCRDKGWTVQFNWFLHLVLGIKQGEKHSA
Sequence of PI3Kβ (P42338 whole entry): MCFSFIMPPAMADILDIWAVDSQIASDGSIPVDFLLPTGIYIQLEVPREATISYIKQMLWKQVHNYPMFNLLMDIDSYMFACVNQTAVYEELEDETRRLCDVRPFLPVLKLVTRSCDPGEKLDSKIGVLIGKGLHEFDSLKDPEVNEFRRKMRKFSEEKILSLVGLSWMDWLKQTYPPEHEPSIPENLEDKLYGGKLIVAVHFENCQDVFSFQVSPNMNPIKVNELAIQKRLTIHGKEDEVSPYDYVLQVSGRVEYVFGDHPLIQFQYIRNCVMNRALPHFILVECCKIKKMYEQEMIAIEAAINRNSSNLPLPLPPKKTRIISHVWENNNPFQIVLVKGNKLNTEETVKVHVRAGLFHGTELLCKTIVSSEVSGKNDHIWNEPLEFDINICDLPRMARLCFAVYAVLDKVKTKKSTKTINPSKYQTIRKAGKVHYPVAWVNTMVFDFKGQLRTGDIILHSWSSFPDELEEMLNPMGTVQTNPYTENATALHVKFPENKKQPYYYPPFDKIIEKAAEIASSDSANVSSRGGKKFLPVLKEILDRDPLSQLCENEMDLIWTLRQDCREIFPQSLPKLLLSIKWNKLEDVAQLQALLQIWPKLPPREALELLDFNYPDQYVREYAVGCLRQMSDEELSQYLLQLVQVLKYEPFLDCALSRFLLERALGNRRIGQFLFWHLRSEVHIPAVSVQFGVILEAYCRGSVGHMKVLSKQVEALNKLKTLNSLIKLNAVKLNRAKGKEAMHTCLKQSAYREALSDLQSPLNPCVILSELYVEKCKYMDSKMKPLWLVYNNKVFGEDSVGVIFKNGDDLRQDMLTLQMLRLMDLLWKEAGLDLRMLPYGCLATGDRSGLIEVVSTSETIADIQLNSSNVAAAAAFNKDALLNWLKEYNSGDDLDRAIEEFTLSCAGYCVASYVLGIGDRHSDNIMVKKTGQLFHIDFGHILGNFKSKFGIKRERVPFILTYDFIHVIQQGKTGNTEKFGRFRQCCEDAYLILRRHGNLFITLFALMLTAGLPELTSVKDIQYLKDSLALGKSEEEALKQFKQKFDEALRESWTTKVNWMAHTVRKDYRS
Sequence of PI3Kβ (P27986 whole entry partner): as the sequence (P27986 whole entry partner) above

In the case of `C[C@@H]1C[C@H]2[C@@H]3CCC4=CC(=O)C=C[C@]4(C)[C@@]3(F)[C@@H](O)C[C@]2(C)[C@@]1(O)C(=O)CO` [Dexamethasone, dexamethasone, reference compound], in [1], the “reduction in IL2 production versus vehicle-treated con A-induced rats” value is on record as “only = 42%” and the “plasma levels alone versus in combination” value was “same levels”. Moreover, the “reduction in IL2 production versus vehicle-treated con A-induced rats” value in [1] (listed as dexamethasone) came to 42%. The “reduction in neutrophils in BALF” value with neutrophils in BALF is recorded as “only = 11%”. In series [2] (setting [13]), the “reduction in eosinophils in BALF” value is given as 58%, the “reduction in lymphocytes in BALF” value was 64% and the “reduction in neutrophils in BALF” value is reported as “only = 53%,”.

In the case of `C[C@H](Nc1ncnc(N)c1C#N)c1nn2ccc(C#N)c2c(=O)n1-c1ccccc1` [LAS191954, (S)-2-(1-(6-amino-5-cyanopyrimidin-4-ylamino)ethyl)-4-oxo-3-phenyl-3,4-dihydropyrrolo[1,2-f][1,2,4]triazine-5-carbonitrile], in series [1], the “plasma levels alone versus in combination” value was “same levels”. For the same compound, the ID50 in series [1] (single administration, rats) is 0.13 mg/kg; in series [3] (secondary IgG anti-KLH, day +11 after second immunization, repeated administration), below 0.3 mg/kg; in [4] (primary IgG anti-KLH, day +15, 14-day dosing), 0.17 mg/kg; in series [4] (primary IgM anti-KLH, day +5, repeated daily administration) it was 0.12 mg/kg; in series [12] (Anti-Dsg3 and anti-dsDNA autoantibody production, repeated administration), below 3 mg/kg. Moreover, the IC50 was determined as 0.0717 µM at PI3K p110γ; 0.0046 µM at PI3Kδ [5]; 0.047 µM against PI3Kδ [6] (Anti-IgD); 0.034 µM at PI3Kδ [6] (Anti-IgM); 0.011 µM against PI3Kδ [7]; 0.295 µM against PI3Kβ. The compound also had a concentration for half-maximal inhibition (IC50) on PI3Kδ [8] of 0.0078 µM. Moreover, the lymphocyte counts result in series [3] (0.3 and 3 mg/kg once daily) is given as “reduced lymphocyte counts”. Further, in series [4] (primary IgG study, 14-day dosing), the lymphocyte count result is “no apparent effect”. Further, in series [4] (primary IgM study, 4 days daily treatment), the WBC counts result is listed as “lower WBC counts”. Besides, the “general health status of the animals” value in [4] (primary TDAR, 0.03-10 mg/kg daily) is recorded as “without apparent effects”. The “reduction in neutrophils in BALF” value with neutrophils in BALF is recorded as “only = 49%”. For the same compound, the “inhibition at single concentration” value in series [9] and in series [10] was “No inhibition” in each case. Further, the “overall disease activity, AUC of accumulative clinical score versus vehicle” value in [11] (LAS191954 3 mg/kg/day orally) was “significant reduction”. Further, the body weight gain entry in series [11] is recorded as “not altered”. The compound further yielded a maximum cell death in the series on CHO cells of 27%. The “effect on eosinophils in BALF (in words)” value in series [2] (LAS191954 only) is “only = Modest”. Further, the “effect on lymphocytes in BALF (in words)” value in [2] (LAS191954 only) is recorded as “only = Modest”. Also, the “effect on neutrophils in BALF (in words)” value in series [2] (LAS191954 only) is listed as “increase in”. Also, the entries for the “Absolute Anti-Dsg3 IgG levels (Mean ± SEM)” value in series [12] (setting [14]) and in series [12] (Week 19 (end of treatment)) were 687 ± 252 U/ml and 450 ± 201 U/ml, respectively. Moreover, the “Absolute Anti-dsDNA IgG levels (Mean ± SEM)” value in [12] (setting [14]) is given as 370.152 ± 52.401 U/ml; in series [12] (Week 19 (end of treatment)), 333.806 ± 106.959 U/ml. Besides, the “mean decrease in anti-Dsg3 antibody levels below those at the beginning of treatment” value in series [12] (week 19 versus week 12, FIG. 3) is recorded as 40%. Further, the “reduction of anti-dsDNA antibody titers at the end of treatment” value in series [12] (week 19 versus week 12, FIG. 3) is 10%.

With `C[C@H]1C[C@@H]2[C@H]([C@@H](O)C[C@@]3(C)[C@H]2CC[C@]3(O)C(=O)CO)[C@@]2(C)C=CC(=O)C=C12` [Methylprednisolone, reference compound], the body weight gain result in series [11] is reported as “diminished the body weight gain”.

For the compound `C[C@]12C=CC(=O)C=C1CC[C@@H]1[C@@H]2[C@@H](O)C[C@@]2(C)[C@H]1CC[C@]2(O)C(=O)CO` [Prednisolone, prednisolone], in [12], the “Inhibition (%) of Anti Dsg3 total IgG production (Normalized AUCw 12-19) versus Vehicle” value turned out to be 49.5 ± 10% and the “Inhibition (%) of Anti dsDNA total IgG production (Normalized AUCw 12-19) versus Vehicle” value amounted to 46.9 ± 10.9%. For the same compound, in series [12] (listed as prednisolone), the “Inhibition (%) of Anti Dsg3 total IgG production (Normalized AUCw 12-19) versus Vehicle” value is 49.5% and the “Inhibition (%) of Anti dsDNA total IgG production (Normalized AUCw 12-19) versus Vehicle” value is on record as 47%. In addition, in [12] (setting [14]), the “Absolute Anti-Dsg3 IgG levels (Mean ± SEM)” value is listed as 501 ± 188 U/ml and the “Absolute Anti-dsDNA IgG levels (Mean ± SEM)” value is recorded as 372.796 ± 56.638 U/ml. In series [12] (Week 19 (end of treatment)), the “Absolute Anti-Dsg3 IgG levels (Mean ± SEM)” value was determined as 242 ± 101 U/ml and the “Absolute Anti-dsDNA IgG levels (Mean ± SEM)” value is reported as 933.755 ± 343.424 U/ml. Also, in series [12] (week 19 versus week 12, FIG. 3), the “change of anti-dsDNA antibody levels at the end of treatment (in words)” value was “doubled” and the “mean decrease in anti-Dsg3 antibody levels below those at the beginning of treatment” value worked out at 20%.
